Experimental data from US20220177508A1, “C10-Cyclic Substituted 13-Membered Macrolides and Uses Thereof” (Zikani Therapeutics, Inc., priority 2018, published 2022).
Values after ≈ are worked out from the molar mass of the structure shown.

Legend:
Assay type in all cases: cell-based
S. aureus MP-12 = test: Broth dilution MIC determination (CLSI), S. aureus MP-12; settings: Staphylococcus aureus, MP12; strain MP-12, broth dilution
E. coli MP-4 = test: Broth dilution MIC determination (CLSI), E. coli MP-4; settings: Escherichia coli, MP4; strain MP-4, broth dilution; read-out: MIC E. coli MP-4
K. pneumoniae MP-546 = test: Broth dilution MIC determination (CLSI), K. pneumoniae MP-546; settings: Klebsiella pneumoniae, MP546; strain MP-546, broth dilution
P. aeruginosa MP-3 = test: Broth dilution MIC determination (CLSI), P. aeruginosa MP-3; settings: Pseudomonas aeruginosa, MP3; strain MP-3, broth dilution
A. baumannii MP-15 = test: Broth dilution MIC determination (CLSI), A. baumannii MP-15; settings: Acinetobacter baumannii, MP15; strain MP-15, broth dilution; read-out: MIC A. baumanii MP-15

Compound | MIC (S. aureus MP-12) [µg/mL] | MIC (E. coli MP-4) [µg/mL] | MIC (K. pneumoniae MP-546) [µg/mL] | MIC (P. aeruginosa MP-3) [µg/mL] | MIC (A. baumannii MP-15) [µg/mL]
CO[C@]1(C)C[C@@H](C)CN(C)[C@@H]([C@@H]2CCN(C)C2)COC(=O)C(C)(C)C(=O)[C@H](C)[C@H]1O[C@@H]1O[C@H](C)C[C@H](N(C)C)[C@H]1O [Compound 109, (3S,6R,8R,9R,10R)-9-(((2S,3R,4S,6R)-4-(Dimethylamino)-3-hydroxy-6-methyltetrahydro-2H-pyran-2-yl)oxy)-8-methoxy-4,6,8,10,12,12-hexamethyl-3-((R)-1-methylpyrrolidin-3-yl)-1-oxa-4-azacyclotridecane-11,13-dione] | > 32 | < 4 | < 4 | > 32 | > 32
CO[C@]1(C)C[C@@H](C)CN(C)[C@@H](C2CCN(C(C)C)CC2)COC(=O)C(C)(C)C(=O)[C@H](C)[C@H]1O[C@@H]1O[C@H](C)C[C@H](N(C)C)[C@H]1O [Compound 116, (3S,6R,8R,9R,10R)-9-(((2S,3R,4S,6R)-4-(dimethylamino)-3-hydroxy-6-methyltetrahydro-2H-pyran-2-yl)oxy)-3-(1-isopropylpiperidin-4-yl)-8-methoxy-4,6,8,10,12,12-hexamethyl-1-oxa-4-azacyclotridecane-11,13-dione] | 4 to 32 (≈ 6.39 to 51.1 µM) | < 4 | < 4 | > 32 | > 32
CO[C@]1(C)C[C@@H](C)CN(C)[C@H](C2CN(C(=O)CN3Cc4ccccc4C3)C2)COC(=O)C(C)(C)C(=O)[C@H](C)[C@H]1O[C@@H]1O[C@H](C)C[C@H](N(C)C)[C@H]1O [Compound 10, (3R,6R,8R,9R,10R)-9-(((2S,3R,4S,6R)-4-(dimethylamino)-3-hydroxy-6-methyltetrahydro-2H-pyran-2-yl)oxy)-3-(1-(2-(isoindolin-2-yl)acetyl)azetidin-3-yl)-8-methoxy-4,6,8,10,12,12-hexamethyl-1-oxa-4-azacyclotridecane-11,13-dione] | 4 to 32 (≈ 5.59 to 44.8 µM) | < 4 | 4 to 32 (≈ 5.59 to 44.8 µM) | > 32 | 4 to 32 (≈ 5.59 to 44.8 µM)
CO[C@]1(C)C[C@@H](C)CN(C)[C@H]([C@H]2CCN(C(=O)CN(C)C)C2)COC(=O)C(C)(C)C(=O)[C@H](C)[C@H]1O[C@@H]1O[C@H](C)C[C@H](N(C)C)[C@H]1O [Compound 100, (3R,6R,8R,9R,10R)-9-(((2S,3R,4S,6R)-4-(Dimethylamino)-3-hydroxy-6-methyltetrahydro-2H-pyran-2-yl)oxy)-3-((S)-1-(dimethylglycyl)pyrrolidin-3-yl)-8-methoxy-4,6,8,10,12,12-hexamethyl-1-oxa-4-azacyclotridecane-11,13-dione] | > 32 | 4 to 32 (≈ 6.11 to 48.9 µM) | 4 to 32 (≈ 6.11 to 48.9 µM) | > 32 | > 32
CO[C@]1(C)C[C@@H](C)CN(C)[C@@H](C2CCN(CC(C)C)CC2)COC(=O)C(C)(C)C(=O)[C@H](C)[C@H]1O[C@@H]1O[C@H](C)C[C@H](N(C)C)[C@H]1O [Compound 12, (3S,6R,8R,9R,10R)-9-(((2S,3R,4S,6R)-4-(dimethylamino)-3-hydroxy-6-methyltetrahydro-2H-pyran-2-yl)oxy)-3-(1-isobutylpiperidin-4-yl)-8-methoxy-4,6,8,10,12,12-hexamethyl-1-oxa-4-azacyclotridecane-11,13-dione] | 4 to 32 (≈ 6.25 to 50 µM) | < 4 | < 4 | > 32 | > 32
CO[C@]1(C)C[C@@H](C)CN(C)[C@H]([C@H]2CCN(C)C2)COC(=O)C(C)(C)C(=O)[C@H](C)[C@H]1O[C@@H]1O[C@H](C)C[C@H](N(C)C)[C@H]1O [Compound 166, (3R,6R,8R,9R,10R)-9-(((2S,3R,4S,6R)-4-(Dimethylamino)-3-hydroxy-6-methyltetrahydro-2H-pyran-2-yl)oxy)-8-methoxy-4,6,8,10,12,12-hexamethyl-3-((S)-1-methylpyrrolidin-3-yl)-1-oxa-4-azacyclotridecane-11,13-dione] | > 32 | < 4 | < 4 | > 32 | > 32
CN[C@H]1CC[C@H]([C@H]2COC(=O)C(C)(C)C(=O)[C@H](C)[C@@H](O[C@@H]3O[C@H](C)C[C@H](N(C)C)[C@H]3O)[C@](C)(OC)C[C@@H](C)CN2C)CC1 [Compound 26, (3S,6R,8R,9R,10R)-9-(((2S,3R,4S,6R)-4-(dimethylamino)-3-hydroxy-6-methyltetrahydro-2H-pyran-2-yl)oxy)-8-methoxy-4,6,8,10,12,12-hexamethyl-3-((1r,4S)-4-(methylamino)cyclohexyl)-1-oxa-4-azacyclotridecane-11,13-dione] | > 32 | 4 to 32 (≈ 6.54 to 52.3 µM) | > 32 | > 32 | > 32
CO[C@]1(C)C[C@@H](C)CN(C)[C@@H]([C@H]2CCN(C)C2)COC(=O)C(C)(C)C(=O)[C@H](C)[C@H]1O[C@@H]1O[C@H](C)C[C@H](N(C)C)[C@H]1O [Compound 48, (3S,6R,8R,9R,10R)-9-(((2S,3R,4S,6R)-4-(Dimethylamino)-3-hydroxy-6-methyltetrahydro-2H-pyran-2-yl)oxy)-8-methoxy-4,6,8,10,12,12-hexamethyl-3-((S)-1-methylpyrrolidin-3-yl)-1-oxa-4-azacyclotridecane-11,13-dione] | 4 to 32 (≈ 6.85 to 54.8 µM) | < 4 | < 4 | > 32 | > 32
CO[C@]1(C)C[C@@H](C)CN(C)[C@H](C2CNC2)COC(=O)C(C)(C)C(=O)[C@H](C)[C@H]1O[C@@H]1O[C@H](C)C[C@H](N(C)C)[C@H]1O [Compound 134, (3R,6R,8R,9R,10R)-3-(azetidin-3-yl)-9-(((2S,3R,4S,6R)-4-(dimethylamino)-3-hydroxy-6-methyltetrahydro-2H-pyran-2-yl)oxy)-8-methoxy-4,6,8,10,12,12-hexamethyl-1-oxa-4-azacyclotridecane-11,13-dione] | > 32 | < 4 | 4 to 32 (≈ 7.2 to 57.6 µM) | > 32 | > 32
CO[C@]1(C)C[C@@H](C)CN(C)[C@H](C2CCN(C(=O)CNCC(C)C)CC2)COC(=O)C(C)(C)C(=O)[C@H](C)[C@H]1O[C@@H]1O[C@H](C)C[C@H](N(C)C)[C@H]1O [Compound 66, (3R,6R,8R,9R,10R)-9-(((2S,3R,4S,6R)-4-(dimethylamino)-3-hydroxy-6-methyltetrahydro-2H-pyran-2-yl)oxy)-3-(1-(isobutylglycyl)piperidin-4-yl)-8-methoxy-4,6,8,10,12,12-hexamethyl-1-oxa-4-azacyclotridecane-11,13-dione] | > 32 | < 4 | 4 to 32 (≈ 5.74 to 45.9 µM) | > 32 | > 32
CO[C@]1(C)C[C@@H](C)CN(C)[C@H](C2CCN(C(=O)CNCC(C)C)CC2)COC(=O)C(C)C(=O)[C@H](C)[C@H]1O[C@@H]1O[C@H](C)C[C@H](N(C)C)[C@H]1O (stereo partly drawn) [Compound 107, (3R,6R,8R,9R,10R)-9-(((2S,3R,4S,6R)-4-(dimethylamino)-3-hydroxy-6-methyltetrahydro-2H-pyran-2-yl)oxy)-3-(1-(isobutylglycyl)piperidin-4-yl)-8-methoxy-4,6,8,10,12-pentamethyl-1-oxa-4-azacyclotridecane-11,13-dione] | > 32 | 4 to 32 (≈ 5.86 to 46.9 µM) | 4 to 32 (≈ 5.86 to 46.9 µM) | > 32 | > 32
CCCN1CC([C@H]2COC(=O)C(C)(C)C(=O)[C@H](C)[C@@H](O[C@@H]3O[C@H](C)C[C@H](N(C)C)[C@H]3O)[C@](C)(OC)C[C@@H](C)CN2C)C1 [Compound 29, (3S,6R,8R,9R,10R)-9-(((2S,3R,4S,6R)-4-(dimethylamino)-3-hydroxy-6-methyltetrahydro-2H-pyran-2-yl)oxy)-8-methoxy-4,6,8,10,12,12-hexamethyl-3-(1-propylazetidin-3-yl)-1-oxa-4-azacyclotridecane-11,13-dione] | > 32 | < 4 | 4 to 32 (≈ 6.69 to 53.5 µM) | > 32 | > 32
CO[C@]1(C)C[C@@H](C)CN(C)[C@@H](C2CN(C(=O)[C@@H](C)N(C)C)C2)COC(=O)C(C)(C)C(=O)[C@H](C)[C@H]1O[C@@H]1O[C@H](C)C[C@H](N(C)C)[C@H]1O [Compound 52, (3S,6R,8R,9R,10R)-3-(1-(dimethyl-D-alanyl)azetidin-3-yl)-9-(((2S,3R,4S,6R)-4-(dimethylamino)-3-hydroxy-6-methyltetrahydro-2H-pyran-2-yl)oxy)-8-methoxy-4,6,8,10,12,12-hexamethyl-1-oxa-4-azacyclotridecane-11,13-dione] | > 32 | < 4 | 4 to 32 (≈ 6.11 to 48.9 µM) | > 32 | > 32
CO[C@]1(C)C[C@@H](C)CN(C)[C@@H]([C@H]2CC[C@H](N(C)C(=O)CN(C)C)CC2)COC(=O)C(C)(C)C(=O)[C@H](C)[C@H]1O[C@@H]1O[C@H](C)C[C@H](N(C)C)[C@H]1O [Compound 82, 2-(dimethylamino)-N-((1S,4r)-4-((3S,6R,8R,9R,10R)-9-(((2S,3R,4S,6R)-4-(dimethylamino)-3-hydroxy-6-methyltetrahydro-2H-pyran-2-yl)oxy)-8-methoxy-4,6,8,10,12,12-hexamethyl-11,13-dioxo-1-oxa-4-azacyclotridecan-3-yl)cyclohexyl)-N-methylacetamide] | > 32 | > 32 | > 32 | > 32 | > 32
CO[C@]1(C)C[C@@H](C)CN(C)[C@H]([C@@H]2CCCNC2)COC(=O)C(C)(C)C(=O)[C@H](C)[C@H]1O[C@@H]1O[C@H](C)C[C@H](N(C)C)[C@H]1O [Compound 77] | > 32 | 4 to 32 (≈ 6.85 to 54.8 µM) | 4 to 32 (≈ 6.85 to 54.8 µM) | > 32 | > 32
